Key:
[1] = Example 2: titration of amine coated core sand in brine #2 with 1N HCl, amine in solution by GC; assay type: physicochemical; conditions: core sand in brine #2, titrated with 1N HCl
Description: Helium was used as the carrier gas.
38 milligrams (mg) of N N-Dimethyl-1-Dodecanamine (hereafter referred to as “the amine”) was added to 10.210 gr of Pentane. This solution was added to 10.1845 gr of specific sand layers (Oa and Ob) obtained from the Schrader Bluff formation of the Milne Point Unit of the Alaskan North slope. The oil content of the sand was first removed using a mixture of methanol and toluene (50/50, volume/volume) as solvent washes. The solvent mixture was subsequently evaporated off the core sand to produce clean, dry, flowable core sand. This sand was mixed with the amine and pentane solution to produce a slurry. This slurry was thoroughly mixed and the pentane was evaporated off leaving the amine on the sand (hereafter referred to as sand/amine mixture). 100 ml of brine #2 (Table 3) was added to the sand/amine mixture to create the sand/amine/brine mixture. […] The fact that the amine was not detected underlined its strong binding to the sand particles. […] The data underlines the remarkable efficiency of an acid at ionizing and removing the amine from the sand.

[2] = Example 4: titration of sand/amine/brine mixture with 10% nitric acid, amine in solution by GC; conditions: core sand in brine #2, titrated with 10 wt % nitric acid
Description: (§1) Concentration of amines, in media and water, were analyzed by gas chromatography (GC). An Agilent Model 5890 (Agilent, Wilmington, Del.), GC equipped with a […] and a split/splitless injector, a DB-FFAP column (30 meter length×0.32 millimeter (mm) […]×0.25 micrometer particle size). […] The system was calibrated using a sample of N,N-Dimethyl-1-Dodecaneamine (Aldrich). Helium was used as the carrier gas. A temperature gradient of 50 degrees Celsius (° C.) to 250° C. at 30° C. increase per minute (min) was used.
The procedure outlined in Example 2 was used to produce the sand/amine mixture except that 519 mg of the amine, 10 gr of Pentane. and 60.062 gr of sand from the Oa and Ob layers were used. 29.065 gr of this sand/amine mixture was added to 100 ml of brine #2 (Table 3) to create the sand/amine/brine mixture. […] The concentration of the amine in the water should have been about […] if all the amine was dissolved in brine #2. […] 0.1 ml of 10 weight percent (wt %) nitric acid in water was added to this solution, and the pH and the amine concentration were measured again.

[3] = Example 5: titration of sand/amine/brine mixture with 10% acetic acid, amine in solution by GC; conditions: core sand in brine #2, titrated with 10 wt % acetic acid
Description: as §1
The same procedure outlined in Example 4 was repeated here to produce the sand/amine mixture. 30.85 grams (gr) of the sand/amine mixture was added to 100 ml of brine #2 (Table 3) to create the sand/amine/brine mixture.

In the case of `CCCCCCCCCCCCN(C)C` [N-N-dimethyl-1-dodeanamine, N N-Dimethyl-1-Dodecanamine], the “pH below which complete ionization and solubilization of the amine in the water was observed” value [1] is reported as roughly 6.0 pH, the “pH below which complete ionization and solubilization in the water of the amine was observed” value [2] is reported as roughly 6.7 pH and the “pH below which complete ionization and solubilization in the water of the amine was observed” value [3] is reported as roughly 6.7 pH.
